The text below walks through data of US9597337B2, “Berberine-ursodeoxycholic acid conjugate for treating the liver” (NORTH AMERICAN BIOMEDICAL RESEARCH CENTER USA, INC., priority 2014, dated 2017).

Like-named read-outs stand apart in the source and are kept apart here.

In general, IC50 refers to the concentration that inhibits the measured activity by half.

For test [1], the system named is KMCH cells. Description: CCK-8 cell viability assay in KMCH cells. In kind it is cell-based. An excerpt:
(§1) FIG. 2 is a set of graphs showing the ability of various molecules to kill KMCH and GS-Li013 cells, which are cholangiocarcinoma cells. The data presented in FIG. 2 is based on in-vtro studies. The y-axis of each graph represents the Cell viability percentage 205 of KMCH and GS-Li013 cells. The x-axis of each graph represents the Log[C]210. [C] refers to the concentration of the molecule tested in uM. IC50 commonly refers to the half maximal inhibitory concentration, and is used to numerically represent the efficacy of various molecules to be effective in their respective tasks. In this case, IC50 means the concentration at which half of the target cells are no longer viable. […] The unit uM is used to represent the IC50 value. uM is the same as micro molar concentration, which is 10^−6 moles/liter, a common concentration unit.
(§2) To obtain the data in FIG. 2, Cell Counting Kit-8 (CCK-8) was used. CCK-8 is commercially available from Dojindo Molecular Technologies, Inc. CCK-8 allows sensitive colorimetric assays for the determination of cell viability in cell proliferation and cytotoxicity assays. Dojindo's highly water-soluble tetrazolium salt, used in CCK-8, is reduced by dehydrogenase activities in cells to give a yellow-color formazan dye, which is soluble in the tissue culture media. The amount of the formazan dye, generated by the activities of dehydrogenases in cells, is directly proportional to the number of living cells. The detection sensitivity of CCK-8 may be higher than the other tetrazolium salts such as MTT, XTT, MTS or WST-1. Cancerous cells in a cell culture were exposed to the either irinotecan, ursodeoxycholic acid, berberine, or NABR01, and the results were recorded. Various concentrations of each molecule were used, resulting in different amount of cell viability. Cell viability was measured according to the procedures of CCK-8, namely higher cell counts lead to higher absorption measurements, which would mean lower drug efficacy.
DLD1 refers to Dukes' type C, colorectal adenocarcinoma, and NABR01 has an IC50 of 5.0 uM for DLD1. HCT2 refers to a hamster lymphoid cell line, and NABR01 has an IC50 of 6.0 uM for HCT2. […] NABR01 has an unexpectedly effective IC50 of less than 10 uM for the cell lines described above, and the related cancers.
In general terms: Tetrazolium assays rely on reduction of a dye to a coloured formazan, in cell work by metabolically active cells.

The subject of test [2] is GS-Li013 cells. Description: CCK-8 cell viability assay in GS-Li013 cells. In kind it is cell-based. The settings on record: GS-Li013 (GS-cell lines), 24 hour treatment.
From the text: as §1, §2

Test [3] has as its system DLD1. Description: CCK-8 cell viability assay, DLD1. The test is classed as cell-based. The note with it: Homo sapiens, DLD-1, DLD1, 48 hour period.
From the text: as §2
(§3) DLD1 refers to Dukes' type C, colorectal adenocarcinoma, and NABR01 has an IC50 of 5.0 uM for DLD1. HCT2 refers to a hamster lymphoid cell line, and NABR01 has an IC50 of 6.0 uM for HCT2. […]

The subject of test [4] is HCT2. Description: CCK-8 cell viability assay, HCT2. The settings on record: Mesocricetus auratus, HCT2, 48 hour period. The test is classed as cell-based, hamster.
From the text: as §2, §3

For test [5], the system named is CCA. Description: CCK-8 cell viability assay, CCA. In kind it is cell-based. The settings on record: 48 hour period.
From the text: as §2, §3

The test system of test [6] is HepG2. Description: CCK-8 cell viability assay, HepG2. In kind it is cell-based. The settings on record: Homo sapiens, HepG2, 48 hour period.
From the text: as §2, §3

The subject of test [7] is MDA468. Description: CCK-8 cell viability assay, MDA468. The test is classed as cell-based. The settings on record: MDA468, 48 hour period.
From the text: as §2, §3

Test [8] has as its system U2OS. Description: CCK-8 cell viability assay, U2OS. The test is classed as cell-based. The settings on record: Homo sapiens, 48 hour period.
From the text: as §2, §3

The subject of test [9] is PANC1. Description: CCK-8 cell viability assay, PANC1. The test is classed as cell-based. The settings on record: Homo sapiens, PANC-1, PANC1, 48 hour period.
From the text: as §2, §3

The test system of test [10] is HCT. Description: CCK-8 cell viability assay, HCT. The settings on record: 48 hour period. The test is classed as cell-based.
From the text: as §2, §3

For test [11], the system named is HT29. Description: CCK-8 cell viability assay, HT29. The test is classed as cell-based. The settings on record: Homo sapiens, HT-29, HT29, 48 hour period.
From the text: as §2, §3

Test [12] concerns MCF7. Description: CCK-8 cell viability assay, MCF7. In kind it is cell-based. The note with it: Homo sapiens, MCF7, 48 hour period.
From the text: as §2, §3

Test [13] deals with SJSA. Description: CCK-8 cell viability assay, SJSA. The test is classed as cell-based. The settings on record: 48 hour period.
From the text: as §2
(§4) As shown in FIGS. 19-20, the efficacy of NABR01 can vary greatly depending on the cancerous cell line, and as a result, NABR01 may not be effective against certain cell lines. […]

Test [14] has as its system HuCCT. Description: CCK-8 cell viability assay, HuCCT. In kind it is cell-based. The note with it: 48 hour period.
From the text: as §2, §4

The test system of test [15] is PC3. Description: CCK-8 cell viability assay, PC3. In kind it is cell-based. The note with it: Homo sapiens, PC-3, PC3, 48 hour period.
From the text: as §2, §4

The subject of test [16] is MDA231. Description: CCK-8 cell viability assay, MDA231. The test is classed as cell-based. The settings on record: Homo sapiens, MDA-MB-231, MDA231, 48 hour period.
From the text: as §2, §4

For test [17], the system named is KMCH cells. Description: Western blot analysis of signaling and apoptosis proteins in KMCH cells. In kind it is cell-based. The settings on record: for cytochrome C release from mitochondria, western blot: berberine at same concentration as NABR01. Here is the method:
FIGS. 6-18 is data which illustrates the mechanism of action for NABR01. Once a mechanism of action is known, it may become possible to predict with some level of accuracy the effects a drug may have, though extensive testing would still be required. Until a mechanism is known, it is extremely difficult to predict what a particular molecule or compound may be useful for, if it is even useful at all. A western blot analysis was performed for MAP kinase signaling proteins, phospho p38, phospho JNK and phospho ERK in KMCH cells with and without NABR01 treatment.
The cytotoxic effect of NABR01 in addition to downregulation of Bcl2, may be attributed to an increase in proapoptotic protein Bim which is specifically cleaved to generate the cytotoxic Bims-form in KMCH cells are treated with NABR01. Caspase-9 is cleaved in cells treated with NABR01 indicating an upstream activation of Caspase 3. […] Accordingly, not only does the ursodiol component of NABR01 assist in targeting, but ursodiol also increases efficacy of the compound when introduced directly to the relevant cells, a wholly unexpected effect.
The activity of pro-inflammatory signaling pathway protein phospho STAT may also increase in NABR01 treated cells.

The subject of test [18] is KMCH tumor. Description: Tumor xenograft study in mice. In kind it is in vivo. An excerpt:
Tumor xenografts studies in mice indicate that the tumor growth corresponding to weight and volume in NABR01 treated group of mice was reduced by approximately 45% in size when treated for 21 days.

[19] abbreviates: KMCH cells, 24 hour treatment, read-out: IC50 (cell viability).

For the compound `CCc1c2c(nc3ccc(OC(=O)N4CCC(N5CCCCC5)CC4)cc13)-c1cc3c(c(=O)n1C2)COC(=O)[C@]3(O)CC` [irinotecan], the IC50 in test [1] (setting [19]) amounted to 95 µM; in test [2], 90 µM.

For the compound `C[C@H](CCC(=O)O)[C@H]1CC[C@H]2[C@@H]3[C@@H](O)C[C@@H]4C[C@H](O)CC[C@]4(C)[C@H]3CC[C@]12C` [ursodeoxycholic acid], the “IC50 (cell viability)” value in [1] (KMCH cells, 24 hour treatment) is recorded as “no IC50”; in test [2], “no IC50”.

For `COc1ccc2cc3[n+](cc2c1OCCCCCCNC(=O)CC[C@@H](C)[C@H]1CC[C@H]2[C@@H]4[C@@H](O)CC5CC(O)CC[C@]5(C)[C@H]4CC[C@]12C)CCc1cc2c(cc1-3)OCO2` (stereo in doubt) [NABR01, berberine-ursodeoxycholic acid conjugate], the IC50 in test [1] (setting [19]) came out at 15 µM; in test [1] (KMCH, 48 hour period, read-out: IC50), 2.9 µM; in test [2] it was 15 µM; in test [3] it was 5 µM; in [4] it was 6 µM; in [5], 4.8 µM. Moreover, the IC50 stood at 5.4 µM in test [6]; 2.1 µM in test [7]; 4.3 µM in test [8]; 3.3 µM in test [9]; 3.9 µM in test [10]; 5.2 µM in [11]. Besides, the IC50 in test [12] turned out to be 9.2 µM; in test [13], 14 µM; in [14], 15 µM; in test [15], 16 µM; in test [16], 36 µM. Also, the “phospho PTEN, western blot” value in [17] is recorded as “remain unchanged”. Further, the “pro-apoptotic protein Noxa” value in test [17] is recorded as “increase”. Moreover, in test [17] (10 uM), the “PARP activation by cleavage, western blot” value is “activated”. The “anti-apoptotic protein Bcl2, western blot” value in test [17] (10 uM) is listed as “down regulated”. Further, in test [17] (10 uM), the “phospho ERK (cell survival pathway), western blot” value is “downregulated”. The “phospho JNK (cell death signaling pathway), western blot” value in [17] (10 uM) is on record as “increased”. Also, the “phospho p38 (cell death signaling pathway), western blot” value in test [17] (10 uM) was “increased”. The “AKT signaling pathway, western blot” value in test [17] (10 uM, 16 hours) is “downregulated”. Also, the “phosphor-AKT pathway, western blot” value in test [17] (10 uM, 16 hours) is given as “downregulated”. Further, the “proapoptotic protein Bim (cleaved to Bims-form), western blot” value in test [17] (10 uM, 24 hours) is given as “increase”. The “Caspase-9 cleavage, western blot” value in test [17] (10 uM, 48 hours) is “cleaved”. The “Phospho CKH2 (DNA repair), western blot” value in [17] (16 hours) was “increased activity”. Also, the “Total P53 levels, western blot” value in test [17] (16 hours) is “downregulated”. For the same compound, the “phospho STAT (pro-inflammatory signaling), western blot” value in [17] (16 hours) is recorded as “increase”. For the same compound, in [17] (16 hours), the “phosphoATM (DNA repair), western blot” value is given as “increased activity”. Further, the “phospho 4EBP1, western blot” value in [17] (24 hours) is listed as “not significantly altered”. For the same compound, in test [17] (24 hours), the “phospho EF2k, western blot” value is given as “not significantly altered”. Further, the “phospho eIF4E, western blot” value in [17] (24 hours) is recorded as “not significantly altered”. In addition, the “phospho p70S6 kinase, western blot” value in test [17] (24 hours) is “not significantly altered”. The “phosphor mTOR 52481 pathway, western blot” value in test [17] (24 hours) was “downregulated”. Also, the “cytochrome C release from mitochondria, western blot” value in test [17] is “released from mitochondria”. In test [17] (by 24hrs of exposure), the Bcl2 protein levels entry is given as “significant decrease”. Also, the tumor weight inhibition in [18] (mice with a KMCH tumor, 4 mg/kg) worked out at 43.46%. The “tumor growth (weight and volume) reduction in size” value in test [18] (mice, tumor xenografts, treated for 21 days) is on record as “approximately 45%”.

Consider `COc1ccc2cc3[n+](cc2c1OC)CCc1cc2c(cc1-3)OCO2` [berberine], for which the half-inhibitory concentration (IC50) in test [1] (setting [19]) was 200 µM. The same compound registered an IC50 in test [2] of 200 µM. In addition, in [17] (10 uM), the “phospho ERK (cell survival pathway), western blot” value is given as “not observed”; the “phospho JNK (cell death signaling pathway), western blot” value is given as “not observed”; the “phospho p38 (cell death signaling pathway), western blot” value was “not observed”. Further, the “cytochrome C release from mitochondria, western blot” value in [17] is given as “did not result in the release”.
